Source: US5270311A, “[1,2,4]-Triazolo[1,5-a]and pyrazolo[2,3-a][1,3,5]triazine derivatives” (Imperial Chemical Industries PLC, priority 1990, dated 1993)
Like-named read-outs stand apart in the source and are kept apart here.

Assays:
[1] = tested on: actions of adenosine in lowering heart rate and increasing vasodilation (hind-limb perfusion pressure); assay: Anaesthetised dog Test; type: in vivo; settings: Schild plot, antagonism of vasodilator response to adenosine
Experimental: (e) Anaesthetised dog Test
This test involves the assessment of the effects of a test compound on antagonising the actions of adenosine in lowering heart rate and increasing vasodilation (as measured by a fall in hind-limb perfusion pressure).
Beagles (12-18 kg) are anaesthetised with sodium pentobarbitone (50 mg/kg, iv). […] Both vagi, the right femoral and sciatic nerves are ligated and severed. […] The right leg is tied just below the ankle. Xamoterol (1 mg/kg) is then administered to the animal to stabilise heart rate at a high level and nitrobenzylthioinosine (NBTI, 0.5 mg/kg) to inhibit the uptake of adenosine. The animal is sensitised to adenosine during the equilibration time following NBTI by carrying out a dose response curve (DRC). During this time any blood gas or pH imbalance is corrected. A control DRC is performed followed-d by up to three DRC's after cumulative administration of the test compound (as described in (d) above). […] Similarly, blood gases and pH are maintained within physiological limits throughout the evaluation.
From this plot a KB value is determined for antagonism of heart rate response and vasodilator response to adenosine.

[2] = tested on: fall in diastolic blood pressure produced by 2-chloroadenosine; assay: Anaesthetised cat blood pressure Test; type: in vivo; settings: i.v., Schild plot, 2-chloroadenosine 30 mm Hg fall in diastolic blood pressure
Experimental: (d) Anaesthetised cat blood pressure Test This test assesses the ability of a test compound to antagonise the fall in diastolic blood pressure produced by administration of the adenosine mimetic, 2-chloroadenosine. […] The blood gas status and pH are determined, and are maintained within physiological limits, before administration of 2-chloroadenosine. […] A solution of the test compound in a mixture of 50% v/v polyethylene glycol (PEG) 400 and 0.1M sodium hydroxide is then administered i.v. and after 15 minutes the DRC to 2-chloroadenosine is determined. This procedure is repeated twice with blood gases and pH being monitored and maintained within physiological limits between each DRC. […] From this plot a KB value is determined.

[3] = biological target: T1, adenosine receptor known as A1 (Cavia porcellus, UniProt P47745); assay: Guinea-pig Atrial Bradycardic Test; settings: antagonism of bradycardic effect of 2-chloroadenosine, beating guinea-pig atrial pair; read-out: pA2 (converted)
T1 construct: Atrial pairs are obtained from guinea-pigs (Dunkin Hartley strain, 250-400 g males); from tissue; host or cells: spontaneously beating atrial pairs, Dunkin Hartley guinea pig
T1 sequence (P47745 1-326): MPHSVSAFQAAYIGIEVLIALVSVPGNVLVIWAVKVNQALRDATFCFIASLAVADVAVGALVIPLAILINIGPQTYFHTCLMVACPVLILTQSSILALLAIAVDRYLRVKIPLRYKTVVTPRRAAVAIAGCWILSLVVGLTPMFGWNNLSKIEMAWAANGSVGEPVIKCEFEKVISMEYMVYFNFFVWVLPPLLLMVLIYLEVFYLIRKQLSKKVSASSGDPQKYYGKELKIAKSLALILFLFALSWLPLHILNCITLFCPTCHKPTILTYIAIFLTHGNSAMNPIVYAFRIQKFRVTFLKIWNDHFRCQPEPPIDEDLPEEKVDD
Experimental: (c) Guinea-pig Atrial Bradycardic Test
The atrial pair preparation may be obtained as follows: Atrial pairs are obtained from guinea-pigs (Dunkin Hartley strain, 250-400 g males) and mounted in organ baths containing oxygenated Krebs buffer solution (95% O2; 5% CO2) at 37° C. The spontaneously beating atria are then placed under a resting tension of 1 g and allowed to equilibrate for 50 minutes with continuous overflow. Overflow is then stopped and adenosine deaminase (1 Unit/ml) added to prevent the accumulation of endogenously produced adenosine. After equilibration for 15 minutes, a cumulative dose response curve to the adenosine mimetic, 2-chloroadenosine(10^-8 M to 10^-4 M) is administered to produce a maximal slowing of atrial rate. After washout during 30 minutes, adenosine deaminase is readministered to the bath which is allowed to equilibrate for 15 minutes. A 10^-5 M solution of the test compound in DMSO is then added to the bath which is left to incubate for 30 minutes. Any effect on the beating rate due to the test compound is noted before the dose response curve to 2-chloroadenosine is repeated. Compounds which are adenosine antagonists attenuate the 2-chloroadenosine response.
Test compounds are assessed by comparing dose response curves to 2-chloroadenosine alone with those obtained in the presence of the compound. […]

[4] = biological target: T2, adenosine receptor known as A2; assay: Guinea-pig Aortic Constriction Test; settings: antagonism of adenosine relaxation of phenylephrine constricted guinea-pig aortic ring; read-out: pA2 (converted)
T2 construct: guinea pig thoracic aorta (from Dunkin Hartley strain, 250-400 g males); from tissue; host or cells: thoracic aortic rings, Dunkin Hartley guinea pig
T2 sequence (P29275 whole entry): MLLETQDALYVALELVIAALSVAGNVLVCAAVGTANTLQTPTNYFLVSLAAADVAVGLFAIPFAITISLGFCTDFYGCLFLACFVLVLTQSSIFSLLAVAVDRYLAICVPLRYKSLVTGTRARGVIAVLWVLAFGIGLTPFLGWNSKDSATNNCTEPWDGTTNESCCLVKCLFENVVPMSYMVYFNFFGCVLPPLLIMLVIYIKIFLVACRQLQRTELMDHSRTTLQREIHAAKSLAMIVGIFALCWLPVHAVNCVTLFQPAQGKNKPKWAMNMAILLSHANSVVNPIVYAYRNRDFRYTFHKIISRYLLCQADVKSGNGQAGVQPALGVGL
Experimental: (b) Guinea-pig Aortic Constriction Test
The aortic ring preparation is obtained as follows: Sections (3-5 mm) of guinea pig thoracic aorta (from Dunkin Hartley strain, 250-400 g males) are mounted in organ baths containing oxygenated Krebs solution (95% O2 : 5% CO2) at 37° C. [The nucleoside transport inhibitor, dipyridamole (10 μM) is present in the Krebs solution]. The isometric tension development is recorded and the tissue placed under a resting tension of 1 g and allowed to equilibrate for 1 hour. The aortic ring preparation is then sensitised to 10^-5 M phenylephrine. Erythro-9-(2-hydroxy-3-nonyl)adenine (EHNA) (10 μM) is added to the preparation and after 10 minutes the tissue is constricted to approximately 50% maximum by adding 3×10^-6 M phenylephrine. Adenosine is next added cumulatively (10^-7 M to 10^-3 M) and the evoked relaxation is measured. After washout for 20 minutes, a 10^5 M solution of the test compound in DMSO (maximum 1% by volume) diluted with Krebs solution is added and left to equilibrate for 30 minutes. Twenty minutes into the equilibration period further EHNA (10 μM) is added to the preparation and 10 minutes later phenylephrine (3×10^-6 M) is introduced to produce constrictive tone again. A repeat dose response curve to adenosine is then carried out followed by washout.
Significant antagonist activity in this assay is indicated by a DR of >2.

A2 Adenosine receptor = biological target: T3, A2 Adenosine receptor (Rattus norvegicus, UniProt P30543); assay: A2 Adenosine receptor affinity test ([3H]-NECA displacement, PC12 membranes); type: binding
T3 construct: membrane preparations derived from the rat phaeochromocytoma cell line PC 12; endogenous in cells; host or cells: PC 12 (rat phaeochromocytoma; cell line available from the Beatson Institute, Glasgow)
T3 sequence (P30543 whole entry): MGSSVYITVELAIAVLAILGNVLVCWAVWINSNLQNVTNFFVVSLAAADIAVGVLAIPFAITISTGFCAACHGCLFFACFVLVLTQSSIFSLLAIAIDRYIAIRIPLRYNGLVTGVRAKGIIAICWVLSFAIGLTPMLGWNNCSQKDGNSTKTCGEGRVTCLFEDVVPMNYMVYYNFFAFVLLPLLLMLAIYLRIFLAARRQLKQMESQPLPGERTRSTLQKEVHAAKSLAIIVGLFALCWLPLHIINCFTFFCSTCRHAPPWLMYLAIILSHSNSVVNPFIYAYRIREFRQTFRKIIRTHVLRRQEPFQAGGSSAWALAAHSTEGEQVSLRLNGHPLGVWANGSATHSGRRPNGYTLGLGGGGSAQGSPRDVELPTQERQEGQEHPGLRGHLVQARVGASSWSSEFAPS
Experimental: The separated cells are then suspended in hypotonic solution (distilled water), allowed to stand on ice for 30 minutes and are then carefully homogenized using a standard high-speed homogeniser with periodic ice-cooling to obtain a fine suspension. […] A1280). […] After 20 minutes, the reaction is terminated by dilution with ice-cold buffer and transfer onto ice. The material obtained containing the cell membranes is recovered by centrifugation and washed by resuspension in buffer and recentrifugation. The pellet produced is then resuspended in ice-cold buffer using a hand-driven homogenizer. The resultant membrane suspension is frozen and stored under liquid nitrogen until required. […] After incubation, the samples are rapidly filtered over glass-fibre mats and the filter mats are washed to remove non-receptor-bound radioligand. Receptor-bound radioligand entrapped on the filter mats is then determined by liquid scintillation counting. Filtration and washing are carried out using a conventional vacuum filtration cell harvester. The specific binding (defined as the difference between the total binding and the non-specific binding) in the presence of the particular test compound is determined and compared with the control value.

[5] = tested on: adenosine induced decrease in blood pressure; assay: Conscious cat oral modification of Test (d); type: in vivo; settings: conscious cats, at several times the minimum effective dose
Text: The above Test (d) may conveniently be modified to allow evaluation of orally administered test compounds by administering the test compound to conscious cats with indwelling arterial and venous catheters and measuring the effect in preventing an adenosine induced decrease in blood pressure.

[6] = tested on: vasodilatation response during twitch contraction of skeletal muscle; assay: Anaesthetised cat exercise hyperaemia test; type: in vivo; settings: Felis catus, iv, 20 min, hind limb contraction at 3 Hz for 20 minutes, read-out: dose producing significant inhibition of vasodilatation during exercise
Experimental: (f) Anaesthetised cat exercise hyperaemia test
This test involves assessment of the effect of a test compound to antagonise the vasodilatation response which occurs during twitch contraction of skeletal muscle. The vasodilation is mediated partly by the release of endogenous adenosine from the contracting skeletal muscle.
Cats (2.4-3.6 kg) are anaesthetised with sodium pentobarbitone (50 mg.kg^-1 ip). The following blood vessels are catheterized: left jugular vein (for infusion of anaesthetic, at approximately […] as a 6 mg.ml^-1 solution in isotonic saline), right external jugular vein (for administration of drugs and test compounds), right common carotid artery (for measurement of systemic arterial blood pressure and pulse rate) and right brachial artery (for withdrawal of blood).
Blood flow to the left hind limb is measured with an electromagnetic flow probe around the left external iliac artery. The whole of the left hind limb is made to contract at 3 Hz for 20 minutes duration by stimulating the sciatic and femoral nerves. Active tension produced by the extensor digitorum longus and peroneous longus muscles is measured isometrically with a force transducer. […] Test compounds are assessed for their ability to reduce the vasodilatation during skeletal muscle contraction. […]

Structure (SMILES)	KB [1] [µg/kg]	KB [2] [µg/kg]	Kb [3] [nM]	Kb [4] [nM]	IC50 (A2 Adenosine receptor) [nM]	sign of overt toxicity [5]	minimal effective dose [6] [mg/kg]	IC50 (A2 Adenosine receptor; displacement of [3H]-NECA, rat PC 12 cell membranes, 30° C., 90 minutes) [nM]
Nc1nc(Oc2ccccc2)nc2nc(-c3ccco3)nn12 [Example 1, 7-amino-2-(2-furyl)-5-phenoxy-[1,2,4]triazolo[1,5-a][1,3,5]triazine]	30	30	631	39.8	~10	without any sign of overt toxicity	0.1 to 1	–
Cn1c(=O)c2[nH]cnc2n(C)c1=O [1,3-dimethylxanthine, reference compound]	–	–	–	–	–	–	10	–
Nc1nc(Oc2ccccc2)nc2cc(-c3ccco3)nn12 [Example 119, 7-amino-2-(2-furyl)-5-phenoxy-pyrazolo[2,3-a][1,3,5]triazine]	1100	700	1000	50.1	–	–	–	~3.16
